In patent US9963461B2, “Phillygenin ibuprofen ester, preparation method therefor, and application thereof” (priority 2014, dated 2018):
Marks after values point to notes of the source that are not given here.

Tests used:
[1] = test system: sweat gland epithelial cells at the rat toe part; assay: Sweat secretion of rat paw part (tissue morphology observation method); type: in vivo, Wistar rats; details: rat toe part; 300.0 mg/kg intragastric
Source text: This test was based on the mechanism that when rat sweat gland is excited, in addition to sweat secretion increase, the morphology of sweat gland epithelial cell is also changed. The number increase and expansion of empty cells of the sweat gland epithelial cells can be seen under the optical microscope. Such enlarged vacuole presents mitochondrial in sweat gland epithelial cells swelling, rupture, fusion and secretory vesicle enlargement under the electron microscope, and through the morphological observation of the sweat gland epithelial cell at the rat paw part, the secretory activity of the sweat gland can be known. In the test, 70 Wistar rats were selected, with equal male and female number, weighing 120-160 g. […] Besides that subcutaneous injection was used for the pilocarpine solution, intragastric administration was used for all the other groups.

[2] = test system: Coxsackie virus A16 (CoxA16); assay: Impact of the drugs on the virus-induced cytopathy (MTT); type: cell-based; details: CoxA16 100 TCID50, Vero cells, about the maximal non-cytotoxic concentration, 72 hours
[3] = test system: rat toe swelling induced by carrageenan; assay: Rat toe swelling induced by carrageenan; type: in vivo, Wistar rats; details: 300 mg/kg sublingual intravenous injection
Protocol: The test groups were administered by sublingual intravenous injection. Before the test, capillary magnification measurement method was used to measure the normal volume of the right hind foot of the rats in each group. To avoid errors, the measurement location was fixed and the operation was made by one person both before and after the administration. The average value of the two measurements was taken as the normal volume of the right hind foot of the rats before administration. […] The difference between the groups was compared by inter-group t test processing through the difference percentage (swelling ratio) of the paw volume before and after the induced rat inflammation.

[4] = test system: rabbit fever induced by typhoid and paratyphoid vaccine; assay: Rabbit fever induced by typhoid and paratyphoid vaccine; type: in vivo, Japanese white rabbits; details: 300 mg/kg
Protocol: Japanese male big-ear white rabbits, weighing 1.5-2.0 kg. Before the test, WSC-411P portable digital thermometer was used to measure the normal rectal temperature twice (with certain interval for each time), and the average value was taken as the normal body temperature. Then 48 Japanese big-ear white rabbits with body temperature of 38-39.6° C. were selected and randomly divided into 8 groups by weight, namely: the blank control (normal saline) group, the model control (0.5% carboxymethylcellulose) group, the ibuprofen group (300 mg/kg), the phillygenin group (10 mg/kg), the 1.25, 2.5, and 5 mg/kg phillygenin ibuprofen ester groups and the positive drug paracetamol (50 mg/kg) group. The rabbits were fixed in a fixator. The blank control group was intravenously injected with normal saline of 1 ml/kg via the ear margin; The model control group and the drug groups were intravenously injected with typhoid and paratyphoid vaccines of 0.8 ml/kg via the ear margin. When the body temperature rise of the rabbits was greater than 1° C. (requiring about 1-1.5 h, which was restricted to 1 h in this test), the blank control group and the model group were administered intragastrically with 0.5% carboxymethycellulose of 1 ml/kg, and the drug groups were administered intragastrically with phillygenin ibuprofen ester and paracetamol. […]

[5] = test system: coxsackie virus B3 (CVB3); assay: Impact of the drugs on the virus-induced cytopathy (MTT); type: cell-based; details: CVB3 100 TCID50, Vero cells, about the maximal non-cytotoxic concentration, 72 hours
parainfluenza virus = assay: as above; type: cell-based; details: parainfluenza virus 100 TCID50, Vero cells, about the maximal non-cytotoxic concentration, 72 hours
[6] = time after administration (min) 30
[7] = time after administration (min) 60
[8] = time after administration (min) 90
[9] = time after administration (min) 120
[10] = time after administration (min) 180

## CC(C)Cc1ccc(C(C)C(=O)O)cc1 (stereo not shown) [Ibuprofen]
[1]
  Number of sweat glands of vacuole: 57
  Void fraction (%): 27.40*** %
[2]
  antiviral effective rate (ER %): 50.04%
[3]; 30 min
  Swelling ratio (%): 0.110 ± 0.119 %
[3]; 60 min
  Swelling ratio (%): 0.151 ± 0.172 %
[3]; 120 min
  Swelling ratio (%): 0.210 ± 0.178 %
[3]; 180 min
  Swelling ratio (%): 0.330 ± 0.337 %
[3]; 240 min
  Swelling ratio (%): 0.4600 ± 0.289 %
[3]; 300 min
  Swelling ratio (%): 0.681 ± 0.369%
[3]; 360 min
  Swelling ratio (%): 0.623 ± 0.338 %
[4]; [6]
  Body temperature (° C.): 40.74 ± 0.52 °C
  antipyretic percentage (%): −0.90 ± 0.41 %
[4]; [7]
  Body temperature (° C.): 40.56 ± 0.40 °C
  antipyretic percentage (%): −1.35 ± 0.11 %
[4]; [8]
  Body temperature (° C.): 40.07 ± 0.44 °C
  antipyretic percentage (%): −2.52 ± 0.13 %
[4]; [9]
  Body temperature (° C.): 39.88 ± 0.55 °C
  antipyretic percentage (%): −3.00 ± 0.23 %
[4]; [10]
  Body temperature (° C.): 39.77 ± 0.53 °C
  antipyretic percentage (%): −3.25 ± 0.29 %
[5]
  antiviral effective rate (ER %): 50.89%
Parainfluenza virus
  antiviral effective rate (ER %): 80.72** %
